{"source": "patent US7572779B2", "about": "(priority 2001, dated 2009)", "experiment": "Open-label, single-dose, randomized, crossover oral bioavailability study in healthy postmenopausal women volunteers", "conditions": "single oral tablet", "excerpt": "The study was an open-label, single-dose, randomized, crossover, bioavailability study in nine healthy postmenopausal women volunteers.\nComparison of treatments was based on ratio of least square means from analysis of variance and ratio of individual subject parameter values, e.g. ratio=(AUCtreatment A)/(AUCtreatment B)."}
{"molecule": "CC(=O)Oc1ccc2c(c1)CC[C@@H]1[C@@H]2CC[C@]2(C)[C@@H](O)CC[C@@H]12", "note": "[17β-estradiol-3-acetate]", "values": [{"measurement": "Absorption as indicated by shape of serum estradiol concentration-time profiles", "value": "rapidly absorbed and hydrolyzed to 17β-estradiol in vivo"}]}
